According to patent publication US9708314B2, “Heterocyclic amide compound” (NISSAN CHEMICAL INDUSTRIES, LTD., priority 2013, dated 2017):

How the values were obtained:
Type in all cases: in vivo
[1] = test system: Beta vulgaris ssp. vulgaris; experiment: Test Example 4: effect on crop by application to foliage (diluvial soil, plastic box); details: for f: Application herbicide amount 320 g/ha, effect on crop
Method in brief: (§1)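 Seeds sown in sterilized diluvial soil, covered ~1.5 cm, grown 14 days in greenhouse at 25° C. to 30° C. Emulsion formulation diluted in water to set rate (g/ha) and sprayed onto stems and leaves. Effect scored visually 3 weeks later on 0–5 scale (5 = ≥90% herbicidal ratio, 0 = ≤5%).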

Triticum aestivum = experiment: as above; details: for e: Application herbicide amount 320 g/ha, effect on crop
Method in brief: as §1

Glycine max = experiment: as above; details: for c: Application herbicide amount 320 g/ha, effect on crop
Method in brief: as §1

Brassica campestris L. = experiment: as above; details: for g: Application herbicide amount 320 g/ha, effect on crop
Method in brief: as §1

[2] = test system: directly sowed Oryza sativa; experiment: as above; details: for d: Application herbicide amount 320 g/ha, effect on crop
Method in brief: as §1

Zea mays = experiment: as above; details: for b: Application herbicide amount 320 g/ha, effect on crop
Method in brief: as §1

[3] = test system: Echinochloa oryzacola Vasing.; experiment: Test Example 2: herbicidal activity, application during weed generation in submerged conditions; details: Eighteenth Table
Method in brief: (§2)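 Scored three weeks post-application on a 0–5 scale (5: ≥90% herbicidal ratio, almost withered; 0: ≤5%). Plants raised from mixed-sown seed in submerged alluvial soil (4 cm water), 25–30 °C greenhouse; water-diluted emulsion applied onto water surface at one- to two-leaf stage, dose in g/ha.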

Monochoria vaginalis = experiment: as above; details: Eighteenth Table
Method in brief: as §2

Scirpus juncoides = experiment: as above; details: Eighteenth Table
Method in brief: as §2

Lolium multiflorum Lam. = experiment: Test Example 4: herbicidal effect by application to foliage (diluvial soil, plastic box); details: for K: Application herbicide amount 320 g/ha
Method in brief: as §1

Setaria viridis = experiment: as above; details: for G: Application herbicide amount 320 g/ha
Method in brief: as §1

Avena fatua = experiment: as above; details: for I: Application herbicide amount 320 g/ha
Method in brief: as §1

Veronica persica = experiment: as above; details: for R: Application herbicide amount 320 g/ha
Method in brief: as §1

Abutilon theophrasti = experiment: as above; details: for M: Application herbicide amount 320 g/ha
Method in brief: as §1

[4] = test system: Echinochloa crus-galli var. crus-galli; experiment: as above; details: for H: Application herbicide amount 320 g/ha
Method in brief: as §1

Apera spica-venti. = experiment: as above; details: for L: Application herbicide amount 320 g/ha
Method in brief: as §1

Chenopodium album = experiment: as above; details: for O: Application herbicide amount 320 g/ha
Method in brief: as §1

Alopecurus myosuroides = experiment: as above; details: for J: Application herbicide amount 320 g/ha
Method in brief: as §1

[5] = application herbicide amount 320 g/ha
[6] = application herbicide amount 192 g/ha

| SMILES | f [1] | e (Triticum aestivum) | c (Glycine max) | g (Brassica campestris L.) | d [2] | b (Zea mays) | A (Echinochloa oryzicola Vasing.) herbicidal ratio grade [3, 5] | C (Monochoria vaginalis) herbicidal ratio grade (Monochoria vaginalis; [5]) | B (Scirpus juncoides) herbicidal ratio grade (Scirpus juncoides; [5]) | K (Lolium multiflorum Lam.) | G (Setaria viridis) | I (Avena fatua) | R (Veronica persica) | M (Abutilon theophrasti) | H [4] | L (Apera spica-venti.) | O (Chenopodium album) | J (Alopecurus myosuroides) | further results |
| --- | --- | --- | --- | --- | --- | --- | --- | --- | --- | --- | --- | --- | --- | --- | --- | --- | --- | --- | --- |
| CCC(C)Sc1nnc2c(C(=O)Nc3nnc(C)o3)ccc(C(F)(F)F)n12 (stereo not drawn) [1-094] | 5 (Herbicidal ratio of 90% or more (almost completely withered)) | 1 (Herbicidal ratio of 5% or more and less than 20%) | 4 (Herbicidal ratio of 70% or more and less than 90%) | 3 (Herbicidal ratio of 40% or more and less than 70%) | 3 (Herbicidal ratio of 40% or more and less than 70%) | 0 (Herbicidal ratio of 5% or less (almost no effect)) | 4 (Herbicidal ratio of 70% or more and less than 90%) | 3 (Herbicidal ratio of 40% or more and less than 70%) | 3 (Herbicidal ratio of 40% or more and less than 70%) | 1 (Herbicidal ratio of 5% or more and less than 20%) | 4 (Herbicidal ratio of 70% or more and less than 90%) | 2 (Herbicidal ratio of 20% or more and less than 40%) | 4 (Herbicidal ratio of 70% or more and less than 90%) | 4 (Herbicidal ratio of 70% or more and less than 90%) | 5 (Herbicidal ratio of 90% or more (almost completely withered)) | 1 (Herbicidal ratio of 5% or more and less than 20%) | 5 (Herbicidal ratio of 90% or more (almost completely withered)) | 1 (Herbicidal ratio of 5% or more and less than 20%) | – |
| Cc1nnc(NC(=O)c2ccc(C(F)(F)F)n3c(SC(C)(C)C)nnc23)o1 [1-095] | 5 (Herbicidal ratio of 90% or more (almost completely withered)) | 1 (Herbicidal ratio of 5% or more and less than 20%) | 2 (Herbicidal ratio of 20% or more and less than 40%) | 3 (Herbicidal ratio of 40% or more and less than 70%) | 3 (Herbicidal ratio of 40% or more and less than 70%) | 0 (Herbicidal ratio of 5% or less (almost no effect)) | 4 (Herbicidal ratio of 70% or more and less than 90%) | 4 (Herbicidal ratio of 70% or more and less than 90%) | 5 (Herbicidal ratio of 90% or more (almost completely withered)) | 2 (Herbicidal ratio of 20% or more and less than 40%) | 3 (Herbicidal ratio of 40% or more and less than 70%) | 1 (Herbicidal ratio of 5% or more and less than 20%) | 5 (Herbicidal ratio of 90% or more (almost completely withered)) | 4 (Herbicidal ratio of 70% or more and less than 90%) | 5 (Herbicidal ratio of 90% or more (almost completely withered)) | 1 (Herbicidal ratio of 5% or more and less than 20%) | 5 (Herbicidal ratio of 90% or more (almost completely withered)) | 1 (Herbicidal ratio of 5% or more and less than 20%) | – |
| Cc1nnc(NC(=O)c2ccc(C(F)(F)F)n3c(N4CCOCC4)nnc23)o1 [1-096] | 5 (Herbicidal ratio of 90% or more (almost completely withered)) | 1 (Herbicidal ratio of 5% or more and less than 20%) | 4 (Herbicidal ratio of 70% or more and less than 90%) | 5 (Herbicidal ratio of 90% or more (almost completely withered)) | 4 (Herbicidal ratio of 70% or more and less than 90%) | 4 (Herbicidal ratio of 70% or more and less than 90%) | 4 (Herbicidal ratio of 70% or more and less than 90%) | 4 (Herbicidal ratio of 70% or more and less than 90%) | 3 (Herbicidal ratio of 40% or more and less than 70%) | 2 (Herbicidal ratio of 20% or more and less than 40%) | 5 (Herbicidal ratio of 90% or more (almost completely withered)) | 2 (Herbicidal ratio of 20% or more and less than 40%) | 5 (Herbicidal ratio of 90% or more (almost completely withered)) | 4 (Herbicidal ratio of 70% or more and less than 90%) | 5 (Herbicidal ratio of 90% or more (almost completely withered)) | 3 (Herbicidal ratio of 40% or more and less than 70%) | 5 (Herbicidal ratio of 90% or more (almost completely withered)) | 1 (Herbicidal ratio of 5% or more and less than 20%) | – |
| CC(C)c1nnc2c(C(=O)Nc3nnc(C(F)(F)F)o3)ccc(C(F)(F)F)n12 [1-100] | 3 (Herbicidal ratio of 40% or more and less than 70%) | 0 (Herbicidal ratio of 5% or less (almost no effect)) | 0 (Herbicidal ratio of 5% or less (almost no effect)) | 0 (Herbicidal ratio of 5% or less (almost no effect)) | 1 (Herbicidal ratio of 5% or more and less than 20%) | 0 (Herbicidal ratio of 5% or less (almost no effect)) | 4 (Herbicidal ratio of 70% or more and less than 90%) | 4 (Herbicidal ratio of 70% or more and less than 90%) | 3 (Herbicidal ratio of 40% or more and less than 70%) | 0 (Herbicidal ratio of 5% or less (almost no effect)) | 1 (Herbicidal ratio of 5% or more and less than 20%) | 1 (Herbicidal ratio of 5% or more and less than 20%) | 1 (Herbicidal ratio of 5% or more and less than 20%) | 3 (Herbicidal ratio of 40% or more and less than 70%) | 4 (Herbicidal ratio of 70% or more and less than 90%) | 0 (Herbicidal ratio of 5% or less (almost no effect)) | 5 (Herbicidal ratio of 90% or more (almost completely withered)) | 0 (Herbicidal ratio of 5% or less (almost no effect)) | – |
| COc1cccc(Nc2nnc3c(C(=O)Nc4nnc(C)o4)ccc(C(F)(F)F)n23)n1 [1-102] | 4 (Herbicidal ratio of 70% or more and less than 90%) | 0 (Herbicidal ratio of 5% or less (almost no effect)) | 0 (Herbicidal ratio of 5% or less (almost no effect)) | 2 (Herbicidal ratio of 20% or more and less than 40%) | 1 (Herbicidal ratio of 5% or more and less than 20%) | 0 (Herbicidal ratio of 5% or less (almost no effect)) | 1 (Herbicidal ratio of 5% or more and less than 20%) | 1 (Herbicidal ratio of 5% or more and less than 20%) | 1 (Herbicidal ratio of 5% or more and less than 20%) | 0 (Herbicidal ratio of 5% or less (almost no effect)) | 3 (Herbicidal ratio of 40% or more and less than 70%) | 0 (Herbicidal ratio of 5% or less (almost no effect)) | 4 (Herbicidal ratio of 70% or more and less than 90%) | 3 (Herbicidal ratio of 40% or more and less than 70%) | 4 (Herbicidal ratio of 70% or more and less than 90%) | 0 (Herbicidal ratio of 5% or less (almost no effect)) | 5 (Herbicidal ratio of 90% or more (almost completely withered)) | 0 (Herbicidal ratio of 5% or less (almost no effect)) | – |
| Cc1cc(C(=O)Nc2nnnn2C)c2nnc(C(C)C)n2c1C(F)(F)F [2-050] | – | – | – | – | – | – | – | – | – | – | – | – | – | – | – | – | – | – | f (Beta vulgaris ssp. vulgaris) effect on crop grade ([1]; foliage application, 192 g/ha): 3 (Herbicidal ratio of 40% or more and less than 70%); e (Triticum aestivum) effect on crop grade (Triticum aestivum; foliage application, 192 g/ha): 0 (Herbicidal ratio of 5% or less (almost no effect)); c (Glycine max) effect on crop grade (Glycine max; foliage application, 192 g/ha): 0 (Herbicidal ratio of 5% or less (almost no effect)); g (Brassica campestris L.) effect on crop grade (Brassica campestris L.; foliage application, 192 g/ha): 0 (Herbicidal ratio of 5% or less (almost no effect)); d (directly sowed Oryza sativa) effect on crop grade ([2]; foliage application, 192 g/ha): 3 (Herbicidal ratio of 40% or more and less than 70%); b (Zea mays) effect on crop grade (Zea mays; foliage application, 192 g/ha): 0 (Herbicidal ratio of 5% or less (almost no effect)); A (Echinochloa oryzicola Vasing.) herbicidal ratio grade [3, 6]: 1 (Herbicidal ratio of 5% or more and less than 20%); C (Monochoria vaginalis) herbicidal ratio grade (Monochoria vaginalis; [6]): 2 (Herbicidal ratio of 20% or more and less than 40%); B (Scirpus juncoides) herbicidal ratio grade (Scirpus juncoides; [6]): 0 (Herbicidal ratio of 5% or less (almost no effect)); K (Lolium multiflorum Lam.) herbicidal effect grade (Lolium multiflorum Lam.; foliage application, 192 g/ha): 0 (Herbicidal ratio of 5% or less (almost no effect)); G (Setaria viridis) herbicidal effect grade (Setaria viridis; foliage application, 192 g/ha): 1 (Herbicidal ratio of 5% or more and less than 20%); I (Avena fatua) herbicidal effect grade (Avena fatua; foliage application, 192 g/ha): 2 (Herbicidal ratio of 20% or more and less than 40%); R (Veronica persica) herbicidal effect grade (Veronica persica; foliage application, 192 g/ha): 3 (Herbicidal ratio of 40% or more and less than 70%); M (Abutilon theophrasti) herbicidal effect grade (Abutilon theophrasti; foliage application, 192 g/ha): 3 (Herbicidal ratio of 40% or more and less than 70%); H (Echinochloa crus-galli var. crus-galli) herbicidal effect grade ([4]; foliage application, 192 g/ha): 3 (Herbicidal ratio of 40% or more and less than 70%); L (Apera spica-venti.) herbicidal effect grade (Apera spica-venti.; foliage application, 192 g/ha): 0 (Herbicidal ratio of 5% or less (almost no effect)); O (Chenopodium album) herbicidal effect grade (Chenopodium album; foliage application, 192 g/ha): 5 (Herbicidal ratio of 90% or more (almost completely withered)); J (Alopecurus myosuroides) herbicidal effect grade (Alopecurus myosuroides; foliage application, 192 g/ha): 0 (Herbicidal ratio of 5% or less (almost no effect)) |
